Reference: ChEMBL document CHEMBL1122103 (J Med Chem, 1982)
pIC50, pKi: −log10 of the molar value.

Legend:
Enterococcus faecium [1] = assay: In vitro antibacterial activity against Streptococcus faecium (ATCC 8043); assay type: functional, organism-based
Lacticaseibacillus casei [2] = assay: In vitro antibacterial activity against Lactobacillus casei (ATCC 7469); assay type: functional, organism-based
Ehrlich = assay: In vitro membrane transport activity in Ehrlich cells in rodent; assay type: functional, cell-based; conditions: Mus musculus
[3] = In vitro for antitumor activity against S180 Ascites tumor in mice at a dose of 6 mg/Kg (sc) was reported as weight at termination of the therapy; assay type: functional, Mus musculus
[4] = In vitro for antitumor activity against S180 Ascites tumor in mice at a dose of 15 mg/Kg (sc) was reported as percentage increase in life span; assay type: functional; conditions: Mus musculus, S-180, sc
L1210 [5] = assay: (§1) In vitro membrane transport activity in L1210 cells in rodent; assay type: functional, cell-based; conditions: Mus musculus
L1210 [6] = assay: In vitro for antitumor activity against L1210 leukemia in mice at a dose of 15 mg/Kg(sc) was reported as weight at termination of the therapy; assay type: functional, Mus musculus
Mus musculus [7] = species on record: Mus musculus; assay: In vitro membrane transport activity in S180 ascites tumor in rodent; assay type: functional
Lacticaseibacillus casei [8] = assay: In vitro antibacterial activity against MTX-resistance Lactobacillus casei; assay type: functional, organism-based
[9] = In vitro antitumor activity against S180 Ascites tumor in mice at a dose of 6 mg/Kg (sc) was reported as maximum survival time; assay type: functional, Mus musculus
L1210 [10] = assay: In vitro for antitumor activity against L1210 leukemia in mice at a dose of 15 mg/Kg(sc) was reported as maximum survival time; assay type: functional, Mus musculus
[11] = In vitro for antitumor activity against S180 Ascites tumor in mice at a dose of 6 mg/Kg (sc) was reported as percentage increase in life span; assay type: functional; conditions: Mus musculus, S-180, sc
[12] = In vitro for antitumor activity against S180 Ascites tumor in mice at a dose of 15 mg/Kg (sc) was reported as weight at termination of the therapy; assay type: functional, Mus musculus
[13] = In vitro antitumor activity against S180 Ascites tumor in mice at a dose of 15 mg/Kg (sc) was reported as maximum survival time; assay type: functional, Mus musculus
L1210 [14] = assay: In vitro for antitumor activity against L1210 leukemia in mice at a dose of 15 mg/Kg(sc) was reported as percentage increase in life span; assay type: functional; conditions: Mus musculus
Enterococcus faecium [15] = assay: In vitro antibacterial activity against MTX-resistant Streptococcus faecium; assay type: functional, organism-based
L1210 [16] = assay: as §1; assay type: functional, Mus musculus
Mus musculus [17] = species on record: Mus musculus; assay: In vitro membrane transport activity in neoplastic epithelial cells of rodent gut; assay type: functional, cell-based; conditions: Epithelial cell
Dihydrofolate reductase [18] = molecular target: T1, Dihydrofolate reductase (Mus musculus, UniProt P00375); assay: In vitro inhibitory activity against L1210 dihydrofolate reductase in rodent neoplastic cells
T1 sequence (P00375 whole entry): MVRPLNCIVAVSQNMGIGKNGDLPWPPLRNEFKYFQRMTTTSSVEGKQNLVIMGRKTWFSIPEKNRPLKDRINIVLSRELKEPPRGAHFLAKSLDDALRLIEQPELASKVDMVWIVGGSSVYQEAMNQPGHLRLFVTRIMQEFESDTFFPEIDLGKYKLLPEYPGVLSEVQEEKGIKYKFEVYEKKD

L1210 [19] = assay: In vitro inhibition of L1210 cell growth in rodent neoplastic cells; assay type: functional, cell-based; conditions: Mus musculus
Dihydrofolate reductase [20] = molecular target: Dihydrofolate reductase (Lactobacillus casei, UniProt P00381); assay: In vitro inhibition of Dihydrofolate reductase activity against Lactobacillus casei enzyme; assay type: functional, Lacticaseibacillus casei
Dihydrofolate reductase (Lactobacillus casei, UniProt P00381), sequence (P00381 whole entry): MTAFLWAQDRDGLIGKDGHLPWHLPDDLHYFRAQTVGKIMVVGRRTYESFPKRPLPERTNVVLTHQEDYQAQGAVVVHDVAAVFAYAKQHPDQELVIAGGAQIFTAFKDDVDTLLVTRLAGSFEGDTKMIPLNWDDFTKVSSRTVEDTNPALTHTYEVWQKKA

L1210 [21] = assay: In vitro for antitumor activity against L1210 leukemia in mice at a dose of 144 mg/Kg(sc) was reported as percentage increase in life span; assay type: functional; conditions: Mus musculus
Thymidylate synthase = molecular target: T2, Thymidylate synthase (Lactobacillus casei, UniProt P00469); assay: In vitro inhibition of activity against Lactobacillus casei enzyme thymidylate synthase; assay type: functional, Lacticaseibacillus casei
T2 sequence (P00469 whole entry): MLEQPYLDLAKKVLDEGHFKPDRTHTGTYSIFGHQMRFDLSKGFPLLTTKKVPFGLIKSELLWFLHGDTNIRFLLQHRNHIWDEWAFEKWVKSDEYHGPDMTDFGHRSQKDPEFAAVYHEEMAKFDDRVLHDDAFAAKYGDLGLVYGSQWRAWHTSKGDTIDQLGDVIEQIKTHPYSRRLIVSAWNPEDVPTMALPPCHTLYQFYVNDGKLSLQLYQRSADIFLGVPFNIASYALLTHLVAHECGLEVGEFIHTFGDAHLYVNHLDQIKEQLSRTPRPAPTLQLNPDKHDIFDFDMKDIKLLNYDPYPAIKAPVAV

L1210 [22] = assay: In vitro for antitumor activity against L1210 leukemia in mice at a dose of 144 mg/Kg(sc) was reported as maximum survival time; assay type: functional, Mus musculus
L1210 [23] = assay: In vitro for antitumor activity against L1210 leukemia in mice at a dose of 144 mg/Kg(sc) was reported as weight at termination of the therapy; assay type: functional, Mus musculus
[24] = In vitro for antitumor activity against S180 Ascites tumor in mice at a dose of 36 mg/Kg (sc) was reported as weight at termination of the therapy; assay type: functional, Mus musculus
[25] = In vitro for antitumor activity against S180 Ascites tumor in mice at a dose of 288 mg/Kg (sc) was reported as percentage increase in life span; assay type: functional; conditions: Mus musculus, S-180, sc
L1210 [26] = assay: In vitro for antitumor activity against L1210 leukemia in mice at a dose of 288 mg/Kg(sc) was reported as weight at termination of the therapy; assay type: functional, Mus musculus
L1210 [27] = assay: In vitro for antitumor activity against L1210 leukemia in mice at a dose of 288 mg/Kg(sc) was reported as percentage increase in life span; assay type: functional; conditions: Mus musculus
[28] = In vitro antitumor activity against S180 Ascites tumor in mice at a dose of 288 mg/Kg (sc) was reported as maximum survival time; assay type: functional, Mus musculus
[29] = In vitro for antitumor activity against S180 Ascites tumor in mice at a dose of 36 mg/Kg (sc) was reported as percentage increase in life span; assay type: functional; conditions: Mus musculus, S-180, sc
L1210 [30] = assay: In vitro for antitumor activity against L1210 leukemia in mice at a dose of 288 mg/Kg(sc) was reported as maximum survival time; assay type: functional, Mus musculus
[31] = In vitro for antitumor activity against S180 Ascites tumor in mice at a dose of 288 mg/Kg (sc) was reported as weight at termination of the therapy; assay type: functional, Mus musculus
[32] = In vitro antitumor activity against S180 Ascites tumor in mice at a dose of 36 mg/Kg (sc) was reported as maximum survival time; assay type: functional, Mus musculus
L1210 [33] = assay: In vitro for antitumor activity against L1210 leukemia in mice at a dose of 288 mg/kg (s.c.) was reported as percentage increase in life span; assay type: functional; conditions: Mus musculus, L1210, sc

SMILES	pIC50 (Enterococcus faecium [1])	pIC50 (Lacticaseibacillus casei [2])	Km (Ehrlich)	Km (L1210 [5])	Km (Mus musculus [7])	pIC50 (Lacticaseibacillus casei [8])	pIC50 (Enterococcus faecium [15])	k (L1210 [16])	Km (Mus musculus [17])	pKi (Dihydrofolate reductase [18])	pIC50 (L1210 [19])	pIC50 (Dihydrofolate reductase [20])	pIC50 (Thymidylate synthase)	Weight at term (L1210 [26])	MST (L1210 [30])	also measured
CN(Cc1cnc2nc(N)nc(N)c2n1)c1ccc(C(=O)N[C@@H](CCC(=O)O)C(=O)O)cc1 [METHOTREXATE]	7.05	7.89	10.1 µM	3.7 µM	11.4 µM	< 2.00	2.14	0.23 min⁻¹	339 µM	–	–	–	–	–	–	Weight at term [3]: 24.1 g; ILS at 15 mg/kg [4]: 82%; Weight at term (L1210 [6]): 19.8 g; MST [9]: 17.8 days; MST (L1210 [10]): 17.1 days; ILS at 6 mg/kg [11]: 78%; Weight at term [12]: 24.4 g; MST [13]: 21.4 days; ILS at 15 mg/kg (L1210 [14]): 152%
Nc1nc(N)c2nc(CNc3ccc(C(=O)N[C@@H](CCC(=O)O)C(=O)O)cc3)cnc2n1 [AMINOPTERIN]	–	–	2.1 µM	1.3 µM	–	–	–	0.21 min⁻¹	–	11.40	8.92	–	–	–	–	–
CCCCCCCCN(Cc1cnc2nc(N)nc(N)c2n1)c1ccc(C(=O)NC(CCC(=O)O)C(=O)O)cc1 (stereo unspecified)	6.39	7.77	1.3 µM	5.6 µM	1.8 µM	< 2.00	3.17	0.89 min⁻¹	1290 µM	7.76	6.66	7.92	< 4.10	–	–	ILS at 144 mg/kg (L1210 [21]): 16%; MST (L1210 [22]): 8.1 days; Weight at term (L1210 [23]): 22.7 g
C#CCN(Cc1cnc2nc(N)nc(N)c2n1)c1ccc(C(=O)NC(CCC(=O)O)C(=O)O)cc1 (stereo unspecified)	6.68	7.85	2.4 µM	3.2 µM	2.1 µM	< 2.00	< 2.00	0.26 min⁻¹	385 µM	9.30	8.85	8.00	4.70	22.3 g	16.6 days	Weight at term [24]: 23.9 g; ILS at 288 mg/kg [25]: 67%; ILS at 288 mg/kg (L1210 [27]): 143%; MST [28]: 19.8 days; ILS at 36 mg/kg [29]: 129%; Weight at term [31]: 22.4 g; MST [32]: 22.9 days
CCCN(Cc1cnc2nc(N)nc(N)c2n1)c1ccc(C(=O)NC(CCC(=O)O)C(=O)O)cc1 (stereo unspecified)	–	–	4.2 µM	3.2 µM	3.5 µM	–	–	0.26 min⁻¹	422 µM	11.52	8.66	–	–	21.3 g	15.8 days	ILS at 288 mg/kg (L1210 [33]): 133%
